Source: patent US20200023031A1, “COMPOSITION FOR ANTI-PANCREATIC CANCER AND ANTI-PANCREATIC ADJUVANT COMPRISING ALLOFERON” (AT-Pharma Co., Ltd., priority 2018, published 2020)

Tests used:
AsPC-1 cells [1] = test: AsPC-1 xenograft model in Balb/C (nu/nu) mice; format: in vivo
Method: (§1) The anti-tumor effect of concomitant alloferon and gemcitabine treatment was also assessed by using xenograft animal model.
(§2) Tumor burdens from each experimental animals were excised and compared its volumes (FIG. 8).

AsPC-1 cells [2] = test: Mitochondrial membrane potential assay, DiOC6(3) staining; format: cell-based; details: 0.5 mg/ml alloferon for week, 250 nM gemcitabine 36 hours
Method: The effect of adjuvant treatment of alloferon and gemcitabine on mitochondrial function was also studied. AsPC-1 cells were cultured for week in the presence or absence of 0.5 mg/ml of alloferon. Then 5×10^5 cells were cultured with 250 nM of gemcitabine for 36 hours. The synergistic effect of alloferon with gemcitabine on the decrease of mitochondrial membrane potential, a general phenomenon associated with cell death by chemotherapeutic drugs, was investigated by staining with DiOC6(3), a green-fluorescent, lipophilic dye (ThermoFisher Scientific). Cells were collected and washed three times with PBS. Then 1×10^6 cells were resuspended in 1 ml freshly prepared 4% paraformaldehyde diluted from stock using PBS for 10 minutes at room temperature and then washed with 1 ml pre-warmed (37° C.) PBS three times. The DiOC6 stock solution was diluted into PBS to make 0.1 μM working solution. The cells were suspended at a density of 1×10^6 cells/ml in dye working solution and protected from light. The cells were incubated at 37° C. for 15 minutes. The cell suspensions were centrifuged at 130×g for 5 minutes. The supernatant was removed and the cells were gently resuspended in 1 ml pre-warmed PBS. The cells were analyzed with LSRII flow cytometer (BD Biosciences) with excitation at 488 nm and emission at 525 nm.

[3] = system: AsPC-1 pancreatic ductal adenocarcinoma cell line; test: Annexin V apoptosis assay, AsPC-1; format: cell-based
Method: (§3) AsPC-1 (FIG. 4(a)) and Panc-1 (FIG. 4(b)), two pancreatic ductal adenocarcinoma cell line, were cultured for week in the presence or absence of […] of alloferon, and then 5×10^5 cells were cultured with 250 nM of gemcitabine for 36 hrs. To investigate whether alloferon increases the sensitivity of these cell lines against gemcitabine, the degree of cell death was examined by an Annexin V-7AAD assay. Cells were collected and washed three times with cold phosphate-buffered saline (PBS) and then resuspended in 1× Annexin V binding buffer at a concentration of 1×10^6 cells/ml (BD Biosciences). Transfer 100 μl of the solution (1×10^5 cells) to a 5 ml culture tube. Add 5 μl of FITC-conjugated Annexin V and incubated for 15 min at room temperature in the dark. Add 400 μl of 1× Annexin V binding buffer to each tube. After 1 μl of propidium iodide (PI) was added just prior to analyze by flow cytometry. Apoptotic cells were analyzed with LSRII flow cytometer (BD Biosciences) with excitation at 488 nm and emission at 525 nm.

Panc-1 cells = test: Panc-1 xenograft model in Balb/C (nu/nu) mice; format: in vivo
Method: as §1, §2

[4] = system: Panc-1 pancreatic ductal adenocarcinoma cell line; test: Annexin V apoptosis assay, Panc-1; format: cell-based
Method: as §3

[5] = subcutaneous, female Balb/C (nu/nu), calipers every 3-4 days
[6] = gemcitabine 250 nM for 36 hrs, alloferon 0.5 μg/ml for a week

**Q.** What does the source list for Nc1ccn([C@@H]2O[C@H](CO)[C@@H](O)C2(F)F)c(=O)n1 [gemcitabine]?
**A.** tumor growth (tumor volume), AsPC-1 xenograft (AsPC-1 cells [1]; [5]): does not effectively suppress growth; excised tumor burden volume, AsPC-1 xenograft (AsPC-1 cells [1]; tumor burdens excised, FIG. 8): does not effectively suppress growth; mitochondrial membrane potential / mitochondrial dysfunction (AsPC-1 cells [2]): does not induce mitochondrial dysfunction; cytotoxic effects, ASPC-1 ([3]; gemcitabine 250 nM): do not have cytotoxic effects; apoptosis, AsPC-1 [3, 6]: do not induce apoptosis; tumor growth (tumor volume), Panc-1 xenograft (Panc-1 cells; [5]): does not effectively suppress growth; excised tumor burden volume, Panc-1 xenograft (Panc-1 cells; tumor burdens excised, FIG. 8): does not effectively suppress growth; cytotoxic effects, PANC-1 ([4]; gemcitabine 250 nM): do not have cytotoxic effects; apoptosis, Panc-1 [4, 6]: do not induce apoptosis
